Measured values published in patent publication US7906308B2, “Phosphorylation and regulation of Akt/PKB by the rictor-mTOR complex” (Whitehead Institute for Biomedical Research, priority 2005, dated 2011).

Legend:
rictor-mTOR complex = molecular target: T1, rictor-mTOR complex (Homo sapiens, UniProt P42345); test: rictor-mTOR immunoprecipitate kinase assay with Akt1/PKB1 as substrate; format: biochemical; settings: immunoprecipitates from HEK-293T or HeLa cells; FIG. 3C
T1 construct: Immunoprecipitates prepared from lysates of HEK-293T or HeLa cells with the indicated antibodies; endogenous in cells; host or cells: A1: HEK-293T or HeLa; A11: PC3, BJAB, Jurkat, HeLa, H460 (treated with rapamycin before lysis)
Protocol: For all immunoprecipitation experiments the lysis buffer contained 0.3% CHAPS instead of 1% Triton in order to preserve the integrity of the mTOR complexes (D. D. Sarbassov et al., Curr Biol 14, 1296 (2004); D.-H. Kim et al., Cell 110, 163 (2002)). 4 μg of the indicated antibodies were added to the cleared cellular lysates and incubated with rotation for 90-min. 25 μl of a 50% slurry of protein G-sepharose was then added and the incubation continued for 1 h. Immunoprecipitates captured with protein G-sepharose were washed four times with the CHAPS Lysis Buffer and once with the rictor-mTOR kinase buffer (25 mM Hepes pH 7.5, 100 mM potassium acetate, 1 mM MgCl2). […] After a quick spin, the supernatant was removed from the protein G-sepharose and analyzed by immunoblotting (D.-H. Kim et al., Cell 110, 163 (2002)). […] Supernatants were used in the Akt1/PKB1 kinase assay as described below and were also analyzed by immunoblotting. The pelleted G-sepharose beads were also analyzed by immunoblotting to determine the levels of rictor, mTOR, and raptor in the immunoprecipitates. Akt1/PKB1 kinase activity was determined using Crosstide (Upstate Biotechnology, #12-331) as substrate as recommended by the manufacturers protocol. […] After the washing, the P81 squares were dried and radioactivity read in a scintillation counter.

PC3 cells [1] = settings: literature (Chinni & Sarkar); cited from earlier work
PC3 cells [2] = test: apoptosis by DNA fragmentation (Cell Death Detection Elisa); settings: PC3 cells expressing wild-type or S473D Akt1/PKB1, 100 μM
Protocol: Cells were selected for one week in 200 μg/ml hygromycin before use. 15,000 PC3 (MSCV controls, WT Akt1/PKB1, or 473D Akt1/PKB1) cells were seeded in the wells of a 96 well-plate and cultured overnight. The next day the cells were rinsed once in serum-free medium and then cultured for 48 hrs in serum-free medium containing either DMSO (the small molecule vehicle), 100 nM rapamycin, 100 μM indole-3-carbinol, or both rapamycin and indole-3-carbinol. When indole-3-carbinol was used, 0.002% BSA was added to the medium. After 48 hours in culture all cells (adherent and floating) were processed with the Cell Death Detection Elisa plus (Roche, cat# 1774425) as described by the manufacturer.

[3] = food intake during 7-day treatment; format: in vivo, mice; settings: 10 mg/kg daily
Protocol: (§1) 1 mg of rapamycin was dissolved in 20 μl of ethanol, which was then diluted with Ringer's saline solution to a final concentration of 1 mg/ml directly before use. Three-month old male C57BL/6NTac (Taconic) mice were administered daily intraperitioneal injections of 10 mg/kg rapamycin or the drug vehicle for 7 days. Mice were then euthanized with CO2, organs were harvested into RIPA buffer, and homogenized with mechanical disruption followed by sonication. […] The experiment was repeated twice with similar results.

mTORC2 assembly = mTORC2 assembly (Homo sapiens, UniProt P42345+P62942); test: 35S pulse-chase of newly synthesized mTOR bound to rictor; format: cell-based; settings: 100 nM
Protocol: 4×10^6 Hela or PC3 cells growing in 100 mm dishes were treated with 100 nM rapamycin or vehicle control for 20 minutes, rinsed once in methionine- and cysteine-free DMEM, and then incubated in 3.5 ml of the same medium containing 10% dialyzed serum and 0.1 mCi/ml of ^35S-methionine/^35S-cysteine (Express Protein Labeling Mix, Perkin Elmer). After allowing the cells to label for 30 minutes, the cells were washed once in the normal culture medium and incubated in fresh medium for the periods of time indicated in the figures. […] Quantification was performed using images acquired with a phosphoimager.

[4] = Morrisett et al. 2003; cited from earlier work
[5] = tissue penetration with phospho-S6 as marker; format: in vivo, mice; settings: 10 mg/kg intraperitoneal daily
Protocol: as §1

rictor = rictor (UniProt Q6R327)
[6] = molecular target: full length, wild-type Akt1/PKB1 (inactive, Upstate Biotechnology #14-279) (UniProt P31749)
full length, wild-type Akt1/PKB1 (inactive, Upstate Biotechnology #14-279), sequence (P31749 whole entry, looked up, tested part not stated): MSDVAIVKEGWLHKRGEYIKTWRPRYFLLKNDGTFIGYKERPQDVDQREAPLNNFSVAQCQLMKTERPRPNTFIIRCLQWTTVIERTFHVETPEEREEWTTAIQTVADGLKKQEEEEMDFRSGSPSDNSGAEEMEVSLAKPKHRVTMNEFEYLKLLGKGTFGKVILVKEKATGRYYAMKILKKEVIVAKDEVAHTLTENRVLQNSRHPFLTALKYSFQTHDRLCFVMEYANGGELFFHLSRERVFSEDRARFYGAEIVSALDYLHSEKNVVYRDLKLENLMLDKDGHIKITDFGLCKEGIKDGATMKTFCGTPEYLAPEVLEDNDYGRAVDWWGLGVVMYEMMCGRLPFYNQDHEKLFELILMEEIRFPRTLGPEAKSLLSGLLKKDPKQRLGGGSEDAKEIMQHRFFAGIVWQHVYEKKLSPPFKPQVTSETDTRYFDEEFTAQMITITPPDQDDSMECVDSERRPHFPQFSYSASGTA

mTORC2 assembly, sequence (P62942 2-108 limits assumed, other chains not shown): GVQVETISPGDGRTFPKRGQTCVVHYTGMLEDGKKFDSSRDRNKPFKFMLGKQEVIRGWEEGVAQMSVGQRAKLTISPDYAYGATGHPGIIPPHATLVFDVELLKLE

CN[C@@H]1C[C@H]2O[C@@](C)([C@@H]1OC)n1c3ccccc3c3c4c(c5c6ccccc6n2c5c31)C(=O)NC4 [Staurosporine, staurosporine]
in vitro phosphorylation of Akt/PKB by rictor-mTOR (rictor-mTOR complex): did not decrease

OCc1c[nH]c2ccccc12 [indole-3-carbinol]
apoptosis in PC3 cells (PC3 cells [1]): known to induce apoptosis | induction of apoptosis (PC3 cells [2]): decreased the capacity of indole-3-carbinol to induce apoptosis

CO[C@H]1C[C@@H]2CC[C@@H](C)[C@@](O)(O2)C(=O)C(=O)N2CCCC[C@H]2C(=O)O[C@H]([C@H](C)C[C@@H]2CC[C@@H](O)[C@H](OC)C2)CC(=O)[C@H](C)/C=C(\C)[C@@H](O)[C@@H](OC)C(=O)[C@H](C)C[C@H](C)/C=C/C=C/C=C/1C [rapamycin]
food intake versus vehicle [3]: ate similar amounts | interaction between newly-synthesized mTOR and rictor prevented (mTORC2 assembly; HeLa cells): 80% | interaction between newly-synthesized mTOR and rictor prevented (mTORC2 assembly; PC3 cells): 100% | side effect in patients [4]: hyperlipidemia commonly seen | tissue penetration [5]: penetrates all major tissues except the brain

mTOR (mammalian Target of Rapamycin kinase)
in vitro kinase activity of rictor immunoprecipitates towards Akt/PKB (rictor): in HeLa and H460 cells treated with rapamycin for 24 hours, a greater amount of mTOR remained bound to rictor and this correlated with a higher level of kinase activity towards Akt/PKB | in vitro phosphorylation of Akt/PKB by immunoprecipitates (rictor): the raptor immunoprecipitates also contain mTOR but did not phosphorylate Akt/PKB

rictor-mTOR complex
phosphorylation of S473 of Akt/PKB in vitro (immunoblot) [6]: Rictor-mTOR complexes isolated from HEK-293T or HeLa phosphorylated S473 but not T308 of full length, wild-type Akt/PKB in vitro
